Test results from patent publication US7323541B2, “Polypeptide DNA thereof and use of the same” (Takeda Pharmaceutical Company Limited, priority 2001, dated 2008).
Changes are numbered by the printed parent chain. Where no end group is shown, it is not given here.

How the values were obtained:
Format in all cases: cell-based
[1] = biological target: T1, TGR23-2 expressing CHO cells (Homo sapiens, UniProt Q6W5P4, N107I/Q344R); test: Enhancing activity of arachidonic acid metabolite release
T1 construct: the clones having the cDNA of TGR23-2, which is contained in pTB2174, were selected; expressed in transfected cells; host or cells: hamster CHO/dhfr- cells, vector pAKKO-111H (pAKKO-TGR23-2)
T1 sequence (Q6W5P4 1-371 N107I/Q344R): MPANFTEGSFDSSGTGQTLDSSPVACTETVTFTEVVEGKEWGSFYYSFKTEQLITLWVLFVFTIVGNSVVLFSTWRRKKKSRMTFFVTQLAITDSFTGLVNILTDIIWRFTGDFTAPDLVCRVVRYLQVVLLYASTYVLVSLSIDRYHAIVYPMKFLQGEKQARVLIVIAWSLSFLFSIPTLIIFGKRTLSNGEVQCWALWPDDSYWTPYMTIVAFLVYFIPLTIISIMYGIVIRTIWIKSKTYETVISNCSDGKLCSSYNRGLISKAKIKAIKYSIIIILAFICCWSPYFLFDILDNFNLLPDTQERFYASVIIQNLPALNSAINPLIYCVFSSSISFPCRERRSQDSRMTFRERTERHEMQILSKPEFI
Description: The CHO/TGR23-2 cells prepared in Example 1 and selected in Example 2 were plated on 24-well plate at 5×10^4 cells/well and cultured for 24 hours. After removing the medium, αMEM medium (pH7.4) supplemented with 0.5 μCi/ml [^3H] arachidonic acid, 10% dialyzed FBS, 20 mM HEPES and 0.5% BSA was added to the cells at 500 μl/well. Subsequently, the cells were incubated for 16 hours in the incubator. After the culture medium containing [^3H] arachidonic acid was discarded, 500 μl/well of αMEM medium (pH7.4) supplemented with 20 mM HEPES and 0.5% BSA were added, and the cells were incubated for 4 hours in the incubator. […] Three milliliters of liquid scintilator were added to the supernatant described above to measure the radioactivity. Based on this measured value, a calculation was made using the following formula, and the promoting activity of arachidonic acid metabolite release was represented by % of control. The activity of the sample-adding group was calculated using a control value configured in each plate. % of control=[…]
X: The radioactivity in the sample-adding group
C: The means of the radioactivity in 4 wells of control (no sample) […]

[2] = biological target: T2, TGR23-1 expressing CHO cells (Homo sapiens, UniProt Q6W5P4); test: Enhancing activity of intracellular cAMP production
T2 construct: the clones having the cDNA of TGR23-1, which is contained in pTB2173, were selected; expressed in transfected cells; host or cells: hamster CHO/dhfr- cells, vector pAKKO-111H (pAKKO-TGR23-1), clones No. 49 and No. 52
T2 sequence (Q6W5P4 1-371): T1 sequence (Q6W5P4 1-371 N107I/Q344R) with I107N, R344Q
Description: The CHO/TGR23-2 cells prepared in Example 1 and selected in Example 2 were plated on 24-well plate at 7×10^4 cells/well and cultured for 48 hours. The cells were washed with αMEM medium (pH7.5) containing 0.2 mM 3-isobutyl-methylxanthine, 0.05% BSA and 20 mM HEPES (hereafter, αMEM medium (pH7.5) containing 0.2 mM 3-isobutyl-methylxanthine, 0.05% BSA and 20 mM HEPES may be referred to as a reaction buffer). Subsequently, 0.5 ml of the reaction buffer was added, and the solution was incubated for 30 minutes in the incubator. The reaction buffer was removed and 0.25 ml of the reaction buffer was freshly added to the cells. Then, the cells were admixed with a sample and 0.25 ml of the reaction buffer containing 2 μM forskoline, and incubated at 37° C. for 30 minutes. Intracellular cAMP was extracted by removing the reaction solution and adding 0.5 ml of the solution for cell lysis attached with cAMP EIA Kit (Applied Biosystems). The cAMP level in the extract was quantified with the same kit. Based on this measured value, a calculation was made using the following formula, and the enhancing/inhibiting activity for cAMP production was represented by % of control. The activity of the sample-adding group was calculated using a control value configured in each plate. % of control=(X−C)/(T−C)×100
X: The cAMP level in the sample-adding group
T: The means of the cAMP level in 3 wells of positive control (no sample, with stimulus of forskoline)
C: The means of the cAMP level in 3 wells of negative control (no sample, without stimulus of forskoline)
Human TGR23-2 ligand (1-20) prepared by the method described in Example 17 was administered to TGR23-1 expressing CHO cells and TGR23-2 expressing CHO cells at a variety of concentrations according to the method described in Example 3, and the enhancing activity of intracellular cAMP production was determined. […]

[3] = biological target: T2, TGR23-1 expressing CHO cells; test: Enhancing activity of arachidonic acid metabolite release

## SFRNGVGSGVKKTSFRRA [rat TGR23-2 ligand (1-18), Ser-Phe-Arg-Asn-Gly-Val-Gly-Ser-Gly-Val-Lys-Lys-Thr-Ser-Phe-Arg-Arg-Ala]
[1]
  enhancing activity of arachidonic acid metabolite release: enhance the arachidonic acid metabolite release
[2]; no forskolin
  enhancing activity of intracellular cAMP production: enhance the intracellular cAMP production
[3]
  enhancing activity of arachidonic acid metabolite release: enhance the arachidonic acid metabolite release

## SFRNGVGTGMKKTSFQRAKS [human TGR23-2 ligand (1-20)]
[1]
  enhancing activity of arachidonic acid metabolite release: enhance the arachidonic acid metabolite release
[2]; no forskolin
  enhancing activity of intracellular cAMP production: enhance the intracellular cAMP production
[2]; with forskolin
  enhancing activity of intracellular cAMP production: clearly enhances cAMP production
[3]
  enhancing activity of arachidonic acid metabolite release: enhance the arachidonic acid metabolite release
